Source: PubChem BioAssay AID1259407 (Chemical Carcinogenesis Research Information System (CCRIS), 2018)
Activity calls are given as the source filed them. How the calls were made is not given here.

Tested on: CCRIS mutagenicity, Ames/micronucleus/aberration tests
Assay: CCRIS mutagenicity studies
[1] = Test System: AMES SALMONELLA TYPHIMURIUM, Strain/Indicator: TA98, Metabolic Activation: NONE, Method: PREINCUBATION
[2] = Test System: AMES SALMONELLA TYPHIMURIUM, Strain/Indicator: TA100, Metabolic Activation: NONE, Method: PREINCUBATION
[3] = Test System: AMES SALMONELLA TYPHIMURIUM, Strain/Indicator: TA98, Metabolic Activation: NONE, Method: STANDARD PLATE
[4] = Test System: AMES SALMONELLA TYPHIMURIUM, Strain/Indicator: TA100, Metabolic Activation: NONE, Method: STANDARD PLATE
[5] = Test System: AMES SALMONELLA TYPHIMURIUM, Strain/Indicator: TA1535, Metabolic Activation: NONE, Method: STANDARD PLATE
[6] = Test System: AMES SALMONELLA TYPHIMURIUM, Strain/Indicator: TA1537, Metabolic Activation: NONE, Method: STANDARD PLATE
[7] = Test System: E. COLI, Strain/Indicator: WP2 UVRA, Metabolic Activation: NONE, Method: STANDARD PLATE

O=C(O)c1ccccc1-c1c2ccc(=O)cc-2oc2cc(O)ccc12
mutagenic call (End Point: IN VITRO CHROMOSOMAL ABERRATIONS, Test System: CHO-LB CELLS, Metabolic Activation: NONE): inactive; negative
mutagenic call (End Point: IN VITRO CHROMOSOMAL ABERRATIONS, Test System: CHO-LB CELLS, Metabolic Activation: RAT, LIVER, S-9, AROCLOR 1254): inactive; negative
mutagenic call (Test System: AMES SALMONELLA TYPHIMURIUM, Strain/Indicator: TA98, Metabolic Activation: HAMSTER, LIVER, S-9, AROCLOR 1254 (10%), Method: PREINCUBATION): inactive; negative
mutagenic call [1]: inactive; negative
mutagenic call (Test System: AMES SALMONELLA TYPHIMURIUM, Strain/Indicator: TA98, Metabolic Activation: RAT, LIVER, S-9, AROCLOR 1254 (10%), Method: PREINCUBATION): inactive; negative
mutagenic call (Test System: AMES SALMONELLA TYPHIMURIUM, Strain/Indicator: TA100, Metabolic Activation: HAMSTER, LIVER, S-9, AROCLOR 1254 (10%), Method: PREINCUBATION): inactive; negative
mutagenic call [2]: inactive; negative
mutagenic call (Test System: AMES SALMONELLA TYPHIMURIUM, Strain/Indicator: TA100, Metabolic Activation: RAT, LIVER, S-9, AROCLOR 1254 (10%), Method: PREINCUBATION): inactive; negative
mutagenic call (Test System: AMES SALMONELLA TYPHIMURIUM, Strain/Indicator: TA1535, Metabolic Activation: HAMSTER, LIVER, S-9, AROCLOR 1254 (10%), Method: PREINCUBATION): inactive; negative
mutagenic call (Test System: AMES SALMONELLA TYPHIMURIUM, Strain/Indicator: TA1535, Metabolic Activation: NONE, Method: PREINCUBATION): inactive; negative
mutagenic call (Test System: AMES SALMONELLA TYPHIMURIUM, Strain/Indicator: TA1535, Metabolic Activation: RAT, LIVER, S-9, AROCLOR 1254 (10%), Method: PREINCUBATION): inactive; negative
mutagenic call (Test System: AMES SALMONELLA TYPHIMURIUM, Strain/Indicator: TA1537, Metabolic Activation: HAMSTER, LIVER, S-9, AROCLOR 1254 (10%), Method: PREINCUBATION): inactive; negative
mutagenic call (Test System: AMES SALMONELLA TYPHIMURIUM, Strain/Indicator: TA1537, Metabolic Activation: NONE, Method: PREINCUBATION): inactive; negative
mutagenic call (Test System: AMES SALMONELLA TYPHIMURIUM, Strain/Indicator: TA1537, Metabolic Activation: RAT, LIVER, S-9, AROCLOR 1254 (10%), Method: PREINCUBATION): inactive; negative

BrCc1c2ccccc2c2ccc3cccc4ccc1c2c43
mutagenic call [3]: active; positive
mutagenic call [4]: active; positive

CC(C)c1cc(-c2ccccc2)cc(C(C)C)c1N
mutagenic call [3]: inactive; negative
mutagenic call (Test System: AMES SALMONELLA TYPHIMURIUM, Strain/Indicator: TA98, Metabolic Activation: RAT LIVER S-9, AROCLOR, Method: STANDARD PLATE): inactive; negative
mutagenic call [4]: inactive; negative
mutagenic call (Test System: AMES SALMONELLA TYPHIMURIUM, Strain/Indicator: TA100, Metabolic Activation: RAT LIVER S-9, AROCLOR, Method: STANDARD PLATE): inactive; negative

O=c1ccc2c(cc3ccc4cccc5ccc2c3c45)c1=O
mutagenic call (Test System: AMES SALMONELLA TYPHIMURIUM, Strain/Indicator: TA97A, Metabolic Activation: NONE, Method: PREINCUBATION): active; positive
mutagenic call [1]: inactive; negative
mutagenic call [2]: inactive; negative
mutagenic call (Test System: AMES SALMONELLA TYPHIMURIUM, Strain/Indicator: TA102, Metabolic Activation: NONE, Method: PREINCUBATION): inactive; negative
mutagenic call (Test System: AMES SALMONELLA TYPHIMURIUM, Strain/Indicator: TA104, Metabolic Activation: NONE, Method: PREINCUBATION): inactive; negative

CC(=O)O[C@H]1C[C@@H]2C(COC(=O)CC(C)C)=CO[C@@H](OC(=O)CC(C)C)[C@@H]2[C@@]12CO2
mutagenic call [3]: inactive; negative
mutagenic call (Test System: AMES SALMONELLA TYPHIMURIUM, Strain/Indicator: TA98, Metabolic Activation: RAT, LIVER, S-9, AROCLOR 1254, Method: STANDARD PLATE): inactive; negative
mutagenic call [4]: inactive; negative
mutagenic call (Test System: AMES SALMONELLA TYPHIMURIUM, Strain/Indicator: TA100, Metabolic Activation: RAT, LIVER, S-9, AROCLOR 1254, Method: STANDARD PLATE): active; positive
mutagenic call [5]: inactive; negative
mutagenic call (Test System: AMES SALMONELLA TYPHIMURIUM, Strain/Indicator: TA1535, Metabolic Activation: RAT, LIVER, S-9, AROCLOR 1254, Method: STANDARD PLATE): inactive; negative
mutagenic call [6]: inactive; negative
mutagenic call (Test System: AMES SALMONELLA TYPHIMURIUM, Strain/Indicator: TA1537, Metabolic Activation: RAT, LIVER, S-9, AROCLOR 1254, Method: STANDARD PLATE): inactive; negative
mutagenic call (Test System: E. COLI, Strain/Indicator: WP2, Metabolic Activation: NONE, Method: STANDARD PLATE): inactive; negative
mutagenic call (Test System: E. COLI, Strain/Indicator: WP2, Metabolic Activation: RAT, LIVER, S-9, AROCLOR 1254, Method: STANDARD PLATE): active; positive
mutagenic call [7]: active; positive
mutagenic call (Test System: E. COLI, Strain/Indicator: WP2 UVRA, Metabolic Activation: RAT, LIVER, S-9, AROCLOR 1254, Method: STANDARD PLATE): active; positive

C[C@@H]1CC[C@@]2(OC1)O[C@H]1C[C@H]3[C@@H]4CC=C5C[C@@H](O[C@@H]6O[C@H](CO)[C@@H](O)[C@H](O[C@@H]7O[C@H](CO)[C@@H](O)[C@H](O)[C@H]7O)[C@H]6O[C@@H]6O[C@@H](C)[C@H](O)[C@@H](O)[C@H]6O)CC[C@]5(C)[C@H]4CC[C@]3(C)[C@H]1[C@@H]2C
mutagenic call [3]: inactive; negative
mutagenic call (Test System: AMES SALMONELLA TYPHIMURIUM, Strain/Indicator: TA98, Metabolic Activation: RAT, LIVER, S-9, PHENOBARBITAL, Method: STANDARD PLATE): inactive; negative
mutagenic call [4]: inactive; negative
mutagenic call (Test System: AMES SALMONELLA TYPHIMURIUM, Strain/Indicator: TA100, Metabolic Activation: RAT, LIVER, S-9, PHENOBARBITAL, Method: STANDARD PLATE): inactive; negative

c1cncc(C2=NCCC2)c1
mutagenic call (End Point: Lymphocytes, Strain/Indicator: Human (male and female) (HPRT)/6-Thioguanine, Metabolic Activation: None): active; positive (p=0.038)

O=[N+]([O-])c1ccc2c3c(cccc13)C=C2
mutagenic call [3]: active; positive

COc1ccc2c(cc3c4c(cc5c(c42)OCO5)C(=O)C(=O)N3C)c1OC
mutagenic call (Test System: AMES SALMONELLA TYPHIMURIUM, Strain/Indicator: TA98, Metabolic Activation: RAT, LIVER, S-9, PHENOBARBITAL AND BETA-NAPHTHOFLAVONE, Method: PREINCUBATION): active; positive
mutagenic call (Test System: AMES SALMONELLA TYPHIMURIUM, Strain/Indicator: TA100, Metabolic Activation: RAT, LIVER, S-9, PHENOBARBITAL AND BETA-NAPHTHOFLAVONE, Method: PREINCUBATION): active; positive

CCNCC#CC(C)(C)OC(=O)C(O)(c1ccccc1)C1CCCCC1 (configuration not stated)
mutagenic call [3]: inactive; negative
mutagenic call (Test System: AMES SALMONELLA TYPHIMURIUM, Strain/Indicator: TA98, Metabolic Activation: RAT, LIVER, S-9, PHENOBARBITAL AND 5,6-BENZOFLAVONE, Method: STANDARD PLATE): inactive; negative
mutagenic call [4]: inactive; negative
mutagenic call (Test System: AMES SALMONELLA TYPHIMURIUM, Strain/Indicator: TA100, Metabolic Activation: RAT, LIVER, S-9, PHENOBARBITAL AND 5,6-BENZOFLAVONE, Method: STANDARD PLATE): inactive; negative
mutagenic call [5]: inactive; negative
mutagenic call (Test System: AMES SALMONELLA TYPHIMURIUM, Strain/Indicator: TA1535, Metabolic Activation: RAT, LIVER, S-9, PHENOBARBITAL AND 5,6-BENZOFLAVONE, Method: STANDARD PLATE): inactive; negative
mutagenic call [6]: inactive; negative
mutagenic call (Test System: AMES SALMONELLA TYPHIMURIUM, Strain/Indicator: TA1537, Metabolic Activation: RAT, LIVER, S-9, PHENOBARBITAL AND 5,6-BENZOFLAVONE, Method: STANDARD PLATE): inactive; negative
mutagenic call [7]: inactive; negative
mutagenic call (Test System: E. COLI, Strain/Indicator: WP2 UVRA, Metabolic Activation: RAT, LIVER, S-9, PHENOBARBITAL AND 5,6-BENZOFLAVONE, Method: STANDARD PLATE): inactive; negative

COCC(=O)N(c1c(C)cccc1C)C(C)C(=O)OC (configuration not stated)
mutagenic call (End Point: In vitro micronucleus, Test System: Human lymphocytes, Metabolic Activation: None): inactive; negative (positive only at 50 ug/ml dose)
mutagenic call (End Point: In vivo micronucleus, Test System: Bone marrow polychromatic erythrocytes, Species: Rat, Strain/Sex: Wistar/Male, Route: Oral): active; positive (at high dose)
